This experiment concerns M. tuberculosis H37Rv growth inhibition. Description: M. tuberculosis H37Rv growth inhibitors, H37Rv strain (AID 1626). The settings on record: for IC90: measured here: IC90 against H37Rv; for CC50: measured here: Vero cell cytotoxicity.

pIC50: −log10 of the molar value.

As a reminder, the IC90 is the concentration needed for an effect of 90%. `COc1ccc(N=Cc2ccc[nH]2)cc1` yielded an IC90 above 100 µM.

Broadly, the pIC50 is the IC50 on a negative log10 scale, so that one unit is a factor of ten. Turning to `CCn1cnc2sc(C(=O)Oc3cccc(C)c3)c(C)c2c1=O`, the negative logarithm of the IC50 (pIC50) was above 6.71 and the IC90 came out at 2.36 µM.

For `CCOC(=O)c1ccc(N=CC2=C(O)CC(C)(C)CC2=O)cc1`, the pIC50 was 5.87 and the IC90 was above 100 µM.

The CC50 is the concentration giving 50% cytotoxicity. A higher CC50 goes with lower toxicity to the cells. `COc1ccc(NS(=O)(=O)c2cc(NC(=O)[C@@H](NC(=O)c3ccccc3)C(C)C)ccc2C)cc1`: the CC50 was determined as 23.3 µM. This counts as double-digit micromolar.

Take `O=c1cc(C(Cl)(Cl)Cl)oc2c1ccc1ccccc12`: the pIC50 is 5.96, the IC90 is 1.8 µM and the CC50 came out at 10.9 µM.

As to `Cc1ccc(C)c(-c2cc(C(=O)Nc3sc(C)c(C)c3C(N)=O)c3ccccc3n2)c1`, the CC50 is above 40 µM.

For the molecule `CCOC(=O)CSc1nnc(-c2ccc(NS(=O)(=O)c3ccc(C)cc3)cc2)o1`, the negative-log IC50 (pIC50) was 5.64 and the IC90 stood at 5.26 µM.

For `O=C(/C=C/c1ccc(Cl)cc1)c1cccnc1`, the pIC50 was 5.70, the IC90 came out at 4.7 µM and the CC50 amounted to 28.5 µM.

For `O=[N+]([O-])c1ncn(Cc2c(Cl)cccc2Cl)n1`, the pIC50 is 4.44 and the IC90 was above 100 µM.

Regarding `CCCCCOC(=O)NCCOC(=O)Nc1ccc(C(=O)OCC)cc1`, the pIC50 was above 6.71, the IC90 is above 100 µM and the CC50 is above 40 µM.

Regarding `COc1ccc(-c2nc(NC(=O)c3cc(C(C)(C)C)nn3C)sc2C)cc1`, the pIC50 is 5.35, the IC90 was 8.83 µM and the CC50 is above 40 µM.

Take `Cc1ccc(-c2nnc(N3CCN(C(=O)c4ccco4)CC3)c3ccccc23)cc1`: the pIC50 is 5.13 and the IC90 came out at 13.8 µM.

Take `Cn1cc(C(=O)CCl)c2ccccc21`: the pIC50 is 5.79, the IC90 was 4.01 µM and the cytotoxic concentration (CC50) was 10.9 µM.

Turning to `CCOC(=O)COc1cc2c3c(c(=O)oc2cc1C)CCCC3`, the pIC50 is 5.80 and the concentration for an effect of 90% (IC90) turned out to be 10.4 µM.

With `Cc1cc(Cl)n2ncc(-c3ccccc3)c2n1`, the pIC50 is 4.24, the IC90 is above 100 µM and the CC50 was above 40 µM.

In the case of `CCOc1ccc(NC(=O)NC23CC4CC(CC(C4)C2)C3)cc1`, the pIC50 is 5.59 and the IC90 was above 100 µM.

Consider `O=C(O)c1[nH]c(=O)[nH]c(=O)c1F`, for which the pIC50 is 5.18, the IC90 amounted to 18.4 µM and the CC50 is above 40 µM.

Take `CCOC(=O)Cc1csc(NC(=O)c2csc3c2CCCC3)n1`: the negative logarithm of the IC50 (pIC50) is 5.04, the IC90 is 12.5 µM and the CC50 is above 40 µM.

With `CCc1ccc(C(=O)CSC2=C(C#N)C(c3ccco3)C(C(C)=O)=C(C)N2)cc1` (configuration not stated), the pIC50 was 5.11, the IC90 was 23.3 µM and the CC50 is above 40 µM.

As to `Nc1ccc2oc(-c3cccc(Br)c3)nc2c1`, the pIC50 is 5.40 and the IC90 was above 100 µM.

Take `CC(C)c1ccc(Nc2nnc(SCC(=O)Nc3ncc(S(=O)(=O)c4ccc([N+](=O)[O-])cc4)s3)s2)cc1`: the pIC50 is 5.25 and the IC90 came out at 7.98 µM.

In the case of `O=C1CC(=C(c2ccccc2)c2ccccc2)C(=O)N1CCCCN1CCN(c2ccccc2)CC1`, the negative-log IC50 (pIC50) was 4.75, the IC90 is 22.7 µM and the CC50 is above 40 µM.

On to `CC1=CC(C)(C)Nc2ccc(OC(=O)c3ccco3)cc21`, for which the pIC50 is 4.26, the IC90 is above 100 µM and the CC50 was above 40 µM.

Turning to `CCCOC(=O)c1ccc(NC(=O)COC)cc1`, the pIC50 is 4.92 and the IC90 was above 100 µM.

Consider `Clc1ccc(-c2nnc(SCc3nc4ccccc4s3)o2)cc1`, for which the pIC50 was 5.28 and the IC90 was above 100 µM.

On to `CC(C)(C)C(=O)Nc1ccc(-c2nc3ccccc3c(=O)o2)cc1`, for which the pIC50 was 5.00 and the IC90 is 20.2 µM.

As to `O=C(COC(=O)c1ccc(Cl)s1)c1ccc[nH]1`, the pIC50 is 5.09 and the IC90 is 16.7 µM.

As for `CCCOC(=O)c1ccc(NC(=O)c2ccc(Br)o2)cc1`, the pIC50 is 6.17 and the IC90 worked out at 2.82 µM.

On to `CC(=O)OCCNc1cc(SCc2ccco2)c2nonc2c1[N+](=O)[O-]`, for which the pIC50 was 6.18 and the IC90 was determined as 1.66 µM.

In the case of `O=[N+]([O-])c1ccc(Sc2nc3ccccc3o2)c([N+](=O)[O-])c1`, the negative logarithm of the IC50 (pIC50) is 5.43, the concentration for an effect of 90% (IC90) was 5.16 µM and the half-maximal cytotoxic concentration (CC50) is 8.69 µM.

Turning to `COc1ccc(NCN2C(=O)CCC2=O)cc1`, the IC90 is above 100 µM.

Consider `CCCOC(=O)c1ccc(NC(=O)Oc2ccccc2)cc1`, for which the pIC50 was 5.34 and the IC90 was above 100 µM.

As for `Cc1cc(-n2c(C)cc(C(=O)COc3ccc4ccc(=O)oc4c3)c2C)no1`, the negative logarithm of the IC50 (pIC50) was 5.09, the IC90 was above 100 µM and the CC50 is above 40 µM.

On to `CCOC(=O)/C=C/C(=O)Nc1nccs1`, for which the IC90 was above 100 µM.

For `CC1CCC(C(C)C)C(OC(=O)Cn2c(-c3ccc(F)cc3)[n+](C)c3ccccc32)C1` (configuration not stated), the pIC50 was 5.16 and the IC90 stood at 11.4 µM.

Take `COC(=O)CSc1nc(-c2ccccc2)c2c(c1C#N)CCCC2`: the pIC50 is 5.28 and the IC90 was determined as 8.33 µM.

`Oc1ccc2ccccc2c1CNc1cnc2ccccc2c1`: the pIC50 was 5.85 and the IC90 is above 100 µM.

For the molecule `Cc1ccc(NC(=O)c2nc[nH]c2C(=O)N[C@@H](C)c2ccccc2)cc1`, the negative-log IC50 (pIC50) was 5.67, the IC90 stood at 6.42 µM and the CC50 was above 40 µM.

For `Cc1cc(SCC(=O)OC/C(O)=C(\C#N)c2nc3ccccc3[nH]2)c(C)cc1Br`, the pIC50 was 5.04, the IC90 was 12.6 µM and the CC50 was above 40 µM.

For the molecule `COc1ccc(Cn2c(SCc3cc(C)ccc3C)nc3cc(OC)c(OC)cc3c2=N)cc1`, the pIC50 is 5.59, the IC90 worked out at 2.83 µM and the CC50 stood at 7.51 µM.

Regarding `O=C1/C(=C/c2cccnc2)Oc2cc(OS(=O)(=O)c3ccc(F)cc3)ccc21`, the pIC50 is 4.14 and the IC90 was above 100 µM.

In turn, `CCOc1ccc(N2C(=O)/C(=C\c3ccc(OC)c(O)c3)S(=O)(=O)C2c2cccc([N+](=O)[O-])c2)cc1` (configuration not stated) yielded an IC90 above 100 µM.

In the case of `COc1ccc(NCC(=O)Nc2ccc(C#N)cc2)cc1Cl`, the pIC50 was 5.08, the 90% effect concentration (IC90) is above 100 µM and the CC50 was above 40 µM.

As for `O=C(OCC#CCSc1nc2ccccc2o1)c1ccco1`, the pIC50 is 5.37 and the IC90 stood at 12.4 µM.

Regarding `O=C(c1ccccc1)C1CN(Cc2ccccc2)CCC1(O)c1ccccc1` (configuration not stated), the pIC50 was 4.61 and the IC90 turned out to be 28.2 µM.

For the molecule `COc1ccccc1Sc1nc(-c2ccccn2)ncc1OC`, the pIC50 is 5.98, the IC90 is above 100 µM and the CC50 turned out to be 7.61 µM.

`Cc1ccc(S(=O)(=O)Nc2ccc(NC(=O)c3c(F)c(F)c(F)c(F)c3F)cc2)cc1`: the half-maximal cytotoxic concentration (CC50) amounted to 21.8 µM. This lies in the double-digit micromolar range.

Take `c1ccc(-c2ccc3c(c2)c2c4n3CCN=C4CCC2)cc1`: the pIC50 was 4.97, the IC90 came to 14.9 µM and the CC50 is 24.7 µM.

Regarding `Nc1nc(N)c2cc(Sc3ccc4ccccc4c3)ccc2n1`, the negative-log IC50 (pIC50) is 5.79, the IC90 was found to be 3.16 µM and the CC50 came to 1.01 µM.

As for `COc1ccc(N=Cc2c[nH][nH]c2=O)cc1`, the concentration for an effect of 90% (IC90) was above 100 µM.

With `CCOc1ccc(N2CCc3c(C)nc(SC)nc32)cc1`, the negative-log IC50 (pIC50) was above 6.71, the IC90 was determined as 40.3 µM and the CC50 turned out to be 27.1 µM.

With `CCOC(=O)c1ccc(Nc2cc3ccccc3c(=O)[nH]2)cc1`, the pIC50 was 4.87 and the IC90 is above 100 µM.

On to `CC(=O)Oc1ccc2oc3c(c2c1)C(=O)CCC3`, for which the pIC50 was 4.92 and the IC90 was above 100 µM.

Consider `CCCc1ccc(-c2cc(C(=O)NC3=NCCS3)c3ccccc3n2)cc1`, for which the IC90 is above 100 µM and the CC50 is above 40 µM.

Regarding `O=S1(=O)C=C(Sc2nc3cc(Cl)ccc3o2)c2ccccc21`, the pIC50 is 5.54, the IC90 is 3.18 µM and the cytotoxic concentration (CC50) amounted to 16.1 µM.

For `COc1cccc(N2CCN(c3cnc4ccccc4n3)CC2)c1`, the pIC50 is 4.60 and the IC90 was above 100 µM.

Regarding `CS(=O)(=O)Cc1nc2ccccc2oc1=O`, the negative-log IC50 (pIC50) was 5.84, the IC90 stood at 2.01 µM and the CC50 was above 40 µM.

In the case of `O=C(C1CCN(c2nnc(-n3cccc3)s2)CC1)N1CCc2ccccc2C1`, the pIC50 was 6.15 and the IC90 worked out at 0.937 µM.

On to `Cc1c(Cc2ccccc2)c(=O)n2c([nH]c3ccccc32)c1C#N`, for which the negative logarithm of the IC50 (pIC50) is 5.52, the IC90 was above 100 µM and the CC50 is 13 µM.

Regarding `Cc1ccc(Oc2nc(-c3ccccn3)nc3ccccc23)cc1`, the negative-log IC50 (pIC50) was 5.59, the IC90 came to 10.5 µM and the CC50 is 22.4 µM.

For the molecule `O=C1C=C(c2cccs2)C[C@H](c2ccccc2)[C@H]1n1nnc([N+](=O)[O-])n1`, the pIC50 was 5.42, the IC90 worked out at 7.5 µM and the CC50 is below 0.078 µM.

Consider `O=C(CSCC(=O)NC1CC1)Nc1ccc2ccccc2c1`, for which the pIC50 is 5.27 and the IC90 was above 100 µM.

Take `CCOC(=O)c1sc2nc(CSc3ccccc3)nc(N3CCCN(C)CC3)c2c1C`: the pIC50 is 5.24, the concentration for an effect of 90% (IC90) was 6.53 µM and the CC50 is 24.8 µM.

`COc1ccc(-c2nn(-c3ccccc3)cc2C(=O)Nc2nccs2)cc1` showed a 90% effect concentration (IC90) above 100 µM and a CC50 above 40 µM.

In the case of `CCCOC(=O)c1ccc(NC(=O)C(=O)NCC2CCCO2)cc1` (configuration not stated), the negative-log IC50 (pIC50) is 4.41 and the IC90 was above 100 µM.

As for `Cc1ccc(OCCN2CCN(CC(O)Cn3c4ccccc4c4ccccc43)CC2)cc1` (configuration not stated), the negative logarithm of the IC50 (pIC50) was 5.04, the IC90 came to 11.4 µM and the CC50 came to 21.5 µM.

For the molecule `CCOC(=O)c1cnc(-n2nc(C)cc2C)nc1NCc1ccc2c(c1)OCO2`, the pIC50 is 5.33, the IC90 was above 100 µM and the half-maximal cytotoxic concentration (CC50) is above 40 µM.

`Cc1cc(NC(=O)C2CCCC2)n(-c2nc3ccccc3[nH]2)n1`: the pIC50 is 4.61 and the IC90 is above 100 µM.

The values above are taken from PubChem BioAssay AID1626 (SRMLSC, 2009).
